Results reported in PubChem BioAssay (NCI).
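Each compound was tested at five concentrations against cells in 96-well plates for 48 hours. TGI marks complete inhibition of growth.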

Assays:
Experiment in all cases: inhibition of tumour cell growth, NCI panel, 48 h
ACHN renal = test system: ACHN renal
BT-549 breast = test system: BT-549 breast
DU-145 prostate = test system: DU-145 prostate
MCF7 breast = test system: MCF7 breast
MDA-MB-435 = test system: MDA-MB-435
OVCAR-3 ovarian = test system: OVCAR-3 ovarian
SK-OV-3 ovarian = test system: SK-OV-3 ovarian
NCI-H226 lung = test system: NCI-H226 lung
HCC-2998 colon = test system: HCC-2998 colon

| Structure (SMILES) | TGI (ACHN renal) [µM] | TGI (BT-549 breast) [µM] | TGI (DU-145 prostate) [µM] | TGI (MCF7 breast) [µM] | TGI (MDA-MB-435) [µM] | TGI (OVCAR-3 ovarian) [µM] | TGI (SK-OV-3 ovarian) [µM] | TGI (NCI-H226 lung) [µM] | TGI (HCC-2998 colon) [µM] |
| --- | --- | --- | --- | --- | --- | --- | --- | --- | --- |
| O=C1c2cc3ccccc3cc2C2(c3ccc(Cl)cc3)N[C@H]3CCCC[C@@H]3N12 (stereo not given in full) | 38.7 | 36.9 | 60.2 | 84.9 | 93 | 49 | 31.9 |  |  |
| COc1ccc(/C=C2\CSC/C(=C\c3ccc(OC)c(OC)c3OC)C2=O)c(OC)c1OC | 52.9 | > 100 | > 100 | > 100 |  | > 100 | > 100 | > 100 |  |
| O=C(O)CSc1cc(-c2ccccc2)nc2ccccc12 | > 100 | > 100 | > 100 |  | 38 | 49 |  |  |  |
| Cc1csc2nc(-c3ccc([N+](=O)[O-])cc3)c(/C=N/N=C(N)N)n12 | 2.71 | 0.211 | 4.3 |  | 3.16 | 5.7 | 3.11 |  | 1.59 |
| CC1CCCC2=C1C(c1ccc(Cl)cc1)n1c(s/c(=C\c3ccc(Cl)cc3)c1=O)=N2 (stereo not given) | > 100 | > 100 | > 100 | > 100 | > 100 |  | > 100 |  |  |
| Cc1cc2[nH]c3c(C#N)c(-c4ccccc4)c(N=Nc4cccc(C(F)(F)F)c4)c(=O)n3c2cc1C | > 100 | > 100 |  | > 100 | > 100 | 57 | > 100 | > 100 | > 100 |
| O=C1c2ccccc2CC12Cc1cc3c(cc1C2=O)CCC3 (stereo not given) | > 100 |  | > 100 | > 100 | > 100 | > 100 | > 100 |  | > 100 |
| CC1C(c2ccc3c(c2)OCO3)c2cc3c(cc2OC1N1CCCC1)OCO3 (stereo not given) | > 100 |  | > 100 | > 100 | 23.7 | > 100 |  |  | 49.1 |
| O=C(O)CSCC(=O)Nc1ccc2cccc3c2c1CC3 | > 100 | > 100 | > 100 | > 100 | > 100 | > 100 |  |  | > 100 |
| CCP(=O)(CC)C(Cl)(Cl)C(O)C(C)(C)C (stereo not given) | > 100 |  | > 100 | > 100 | > 100 | > 100 | > 100 | > 100 | > 100 |
| CN(C)CCNc1ccc([N+](=O)[O-])c2nc3ccccc3c(N)c12 | 3.51 |  | > 10 | > 10 | 2.61 | 3.32 | 1.33 | > 10 |  |
